Measurements from patent US20080121012A1, “Electrode Calibration” (priority 2004, published 2008).

Legend:
[1] = cited from earlier work
[2] = Detection of CO release using the myoglobin assay (conversion of deoxy-Mb to MbCO); type: physicochemical
Procedure: The release of CO from CORM-A1 (Na2[H3BCOO]) was assessed spectrophotometrically by measuring the conversion of deoxymyoglobin (deoxy-Mb) to carbonmonoxy myoglobin (MbCO) in a manner previously reported (refs. 3, 4, 5). A small aliquot of CORM-A1 (60 μM final concentration) was added to 1 ml deoxy-Mb (≈53 μM) in phosphate buffer and changes in the Mb spectra were recorded over time. The amount of MbCO formed was quantified by measuring the absorbance at 540 nm (extinction coefficient=[…]). In order to examine the effect of pH on the rate of CO liberation from CORM-A1, experiments were conducted using solutions of myoglobin in 0.04 M phosphate buffer prepared at different pHs (7.4, 7.0, 6.5 and 5.5). The amount of MbCO formed was plotted over time and the half-life of CORM-A1 at different pHs and temperatures was calculated from the fitted curves.
The conversion of deoxy-Mb to MbCO can be followed over time by measuring the changes in the absorption spectra of this protein. […] The Mb appears to be fully saturated 2 h after addition of CORM-A1 (see curve with filled diamonds in FIG. 1A). […] Specifically, from the fitted curves shown in FIG. 2A we can calculate that the half-lives of CORM-A1 at 37° C. are as follows: 21 min at pH=7.4; 7.1 min at pH=7.0; 3.3 min at pH=6.5; and 2.5 min at pH=5.5.

[3] = Detection of CO release using an amperometric CO sensor; type: physicochemical; settings: 20 μM; for dissociation rate constant of CO / half-life: 37° C.
From the text: The release of CO from CORM-A1 was also detected using a prototype electrode purchased from World Precision Instrument (Stevenage, Herts, UK). This CO electrode is a membrane-covered amperometric sensor which has been designed on a basic operating principle similar to the nitric oxide (NO) sensor (ISO-NOP series, World Precision Instruments). The CO sensor can be connected to the ISO-NO Mark II meter for detection of the current signals providing that the poise potential is set to a different value (900 mV for CO as opposed to 860 mV for NO). In principle, CO diffuses through the gas permeable membrane and is then oxidized to CO2 on the working electrode. This oxidation creates a current whose magnitude can be related directly to the concentration of CO in solution. The CO sensor was used to generate standard curves and calculate the rates of CO release from CORM-A1 at different pHs and temperatures. The electrode was immersed into the solutions at different pHs and equilibrated for 30 min prior to addition of CORM-A1. For the experiments conducted at 37, 30, 25 and 20° C., the solutions were maintained at the desired temperature using a Grant W6 thermostat (Cambridge, England).
CORM-A1 was also tested for its ability to liberate CO using an amperometric electrode sensitive to CO. […] A standard curve generated at pH=5.5 using CORM-A1 in a range between 10 and 50 μM indicated a good linear correlation (R^2=0.998) between the concentrations used and the electrode response (FIG. 3B). Therefore, a concentration of 20 μM CORM-A1 was then used to calculate the rate of CO dissociation from CORM-A1 at different pHs and temperatures. […] Specifically, from the curves shown in FIG. 3D, we can calculate that the initial rate of CO release at pH=5.5 is 6.84 μM/min at 37° C., 3.83 μM/min at 30° C., 2.16 μM/min at 25° C. and 1.22 μM/min at 20° C. Thus, the spontaneous liberation of CO from CORM-A1 in aqueous solutions is both pH- and temperature-dependent.

| Compound | solubility [1] | time until Mb is fully saturated with CO ([2]; 60 μM, 37° C., pH=7.4) | mole of CO formed per mole of compound ([2]; pH=5.5, standard curve) | dissociation rate constant of CO ([3]; pH=4.0) | dissociation rate constant of CO ([3]; pH=5.5) | half-life ([3]; pH=5.5) | dissociation rate constant of CO ([3]; pH=7.4) | half-life ([3]; pH=7.4) | initial rate of CO release ([3]; pH=5.5, 20° C.) | initial rate of CO release ([3]; pH=5.5, 25° C.) | initial rate of CO release ([3]; pH=5.5, 30° C.) | initial rate of CO release ([3]; pH=5.5, 37° C.) |
| --- | --- | --- | --- | --- | --- | --- | --- | --- | --- | --- | --- | --- |
| [C-]#[O+].[C-]#[O+].[C-]#[O+].[C-]#[O+].[C-]#[O+].[C-]#[O+].[C-]#[O+].[C-]#[O+].[C-]#[O+].[C-]#[O+].[Mn].[Mn] [CORM-1, manganese decacarbonyl] | soluble only in organic solvents |  |  |  |  |  |  |  |  |  |  |  |
| sodium boranocarbonate [CORM-A1] |  | 2 h | one | 0.011 s⁻¹ | 0.0058 s⁻¹ | 1.96 min | 0.00055 s⁻¹ | 21.06 min | 1.22 µM/min | 2.16 µM/min | 3.83 µM/min | 6.84 µM/min |
| [C-]#[O+].[C-]#[O+].[C-]#[O+].[C-]#[O+].[C-]#[O+].[C-]#[O+].[Cl][Ru][Cl].[Cl][Ru][Cl] [CORM-2, tricarbonyldichlororuthenium(II) dimer] | soluble only in organic solvents |  |  |  |  |  |  |  |  |  |  |  |
